Measurements: CN113214121A, “一种格列本脲-精氨酸共无定型” (Jiangsu Hengrui Medicine Co Ltd, priority 2020, dated 2021)
In brackets after ≈: the same amount, converted by molar mass. Read-outs that look alike come from different tables or passages of the source.

Experiments:
[1] = Content of glyburide and arginine dissolved in the filtered supernatant, Example 2; assay type: physicochemical; conditions: 8mg glyburide + 8mg arginine in 10mL water, supersaturated solution at 60℃, 0.45um filter
[2] = 100mg glyburide (form A) + 36mg arginine in 10mL water, room temperature, stirred overnight, 0.45um filter
[3] = 25℃; cited from earlier work

Compound | arginine content in supernatant [1] [mg/mL] | arginine content in supernatant [2] [mg/mL] | solubility [1] [µg/mL] | solubility in water [3] [µg/mL]
N=C(N)NCCCC(N)C(=O)O (stereo not shown) [精氨酸] | 0.8 | 3.50 |  | 
COc1ccc(Cl)cc1C(=O)NCCc1ccc(S(=O)(=O)NC(=O)NC2CCCCC2)cc1 [格列本脲, N-[2-[4-[[[(环己氨基)羰基]氨基]磺酰基]苯基]乙基]-2-甲氧基-5-氯苯甲酰胺] |  |  | 800 | 100 (≈ 202 µM)
